This note sets out measurements from PubChem BioAssay AID602305 (The Scripps Research Institute Molecular Screening Center, 2012).

For orientation: IC50 means the concentration needed to halve the response being measured.

Structures are written as SMILES. Activity calls are given as the source filed them. The rule behind the calls is not given here.

The subject of the experiment is cell line, cAMP TR-FRET counterscreen, inhibition. As to the kind of experiment: dose response, counter-screen, cell-based (AID 602305). Background: A counterscreen serves to expose hits that act by an unwanted route or on another target.

Regarding `CCOP(=O)(CCP(=O)(OCC)OCC)OCC.C[CH2][Sn]([Cl])([Cl])[CH2]C`, the IC50 was > 64.5 µM (inactive).
